# According to PMC5218480 (PLoS ONE, 2017):
# Test system: MV-4-11 cells
# Assay: Gene expression microarray analysis (Affymetrix PrimeView) and GSEA
# Type: cell-based, human
# Parameters: RFU PODN (11730768_x_at) / Fold change /veh PODN (11730768_x_at) / RFU LINC00158 (11744669_a_at) / Fold change /veh LINC00158 (11744669_a_at) / RFU DUSP10 (11751237_a_at) / Fold change /veh DUSP10 (11751237_a_at) / RFU ID3 (11757404_x_at) / Fold change /veh ID3 (11757404_x_at) / RFU PLEKHG5 (11737974_s_at) / Fold change /veh PLEKHG5 (11737974_s_at) / RFU LRRC4B (11730491_at) / Fold change /veh LRRC4B (11730491_at) / RFU GIMAP4 (11747438_a_at) / Fold change /veh GIMAP4 (11747438_a_at) / RFU KRT8 (11758183_x_at) / Fold change /veh KRT8 (11758183_x_at) / RFU CNN1 (11734310_a_at) / Fold change /veh CNN1 (11734310_a_at) / RFU VPS37D (11726825_at) / Fold change /veh VPS37D (11726825_at) / RFU C10orf10 (11716522_x_at) / Fold change /veh C10orf10 (11716522_x_at) / RFU KIR2DL2 /// KIR2DL4 /// KIR2DL5A /// KIR2DL5B /// KIR2DS1 /// KIR2DS2 /// KIR2DS3 /// KIR2DS4 /// KIR3DL3 /// KIR3DL3 /// KIR3DS1 (11738374_at) / Fold change /veh KIR2DL2 /// KIR2DL4 /// KIR2DL5A /// KIR2DL5B /// KIR2DS1 /// KIR2DS2 /// KIR2DS3 /// KIR2DS4 /// KIR3DL3 /// KIR3DL3 /// KIR3DS1 (11738374_at) / RFU C1QL1 (11718748_at) / Fold change /veh C1QL1 (11718748_at) / RFU TMPRSS4 (11747572_a_at) / Fold change /veh TMPRSS4 (11747572_a_at) / RFU HAMP (11756126_x_at) / Fold change /veh HAMP (11756126_x_at) / RFU RNFT2 (11725882_a_at) / Fold change /veh RNFT2 (11725882_a_at) / RFU NR4A2 (11747474_a_at) / Fold change /veh NR4A2 (11747474_a_at) / RFU ABCC12 (11746883_a_at) / Fold change /veh ABCC12 (11746883_a_at) / RFU TMEM136 (11760407_x_at) / Fold change /veh TMEM136 (11760407_x_at) / RFU CLDN22 /// WWC2 (11732394_at) / Fold change /veh CLDN22 /// WWC2 (11732394_at) / RFU HLA-DPB1 (11760878_x_at) / Fold change /veh HLA-DPB1 (11760878_x_at) / RFU SPINT1 (11716480_a_at) / Fold change /veh SPINT1 (11716480_a_at) / RFU GAP43 (11754022_s_at) / Fold change /veh GAP43 (11754022_s_at) / RFU A4GNT (11735810_at) / Fold change /veh A4GNT (11735810_at) / RFU PRB3 (11715151_x_at) / Fold change /veh PRB3 (11715151_x_at) / RFU TUBB4B (11761932_at) / Fold change /veh TUBB4B (11761932_at) / RFU CAPN14 (11732068_a_at) / Fold change /veh CAPN14 (11732068_a_at) / RFU TMCC2 (11721928_a_at) / Fold change /veh TMCC2 (11721928_a_at) / RFU IRGQ (11745062_a_at) / Fold change /veh IRGQ (11745062_a_at) / RFU FAM174B (11720279_a_at) / Fold change /veh FAM174B (11720279_a_at) / RFU TMPRSS4 (11748680_a_at) / Fold change /veh TMPRSS4 (11748680_a_at) / RFU FAM212B (11763350_a_at) / Fold change /veh FAM212B (11763350_a_at) / RFU PLEKHG5 (11743358_a_at) / Fold change /veh PLEKHG5 (11743358_a_at) / RFU ZSCAN30 (11745921_a_at) / Fold change /veh ZSCAN30 (11745921_a_at) / RFU CMKLR1 (11741424_a_at) / Fold change /veh CMKLR1 (11741424_a_at) / RFU LOC101060620 /// MAPK8IP1 (11723275_at) / Fold change /veh LOC101060620 /// MAPK8IP1 (11723275_at) / RFU SPTSSB (11747773_x_at) / Fold change /veh SPTSSB (11747773_x_at) / RFU PRSS12 (11739890_at) / Fold change /veh PRSS12 (11739890_at) / RFU BIN1 (11741810_x_at) / Fold change /veh BIN1 (11741810_x_at) / RFU WNT11 (11732464_a_at) / Fold change /veh WNT11 (11732464_a_at) / RFU C10orf10 (11716521_a_at) / Fold change /veh C10orf10 (11716521_a_at) / RFU C5orf56 (11738089_at) / Fold change /veh C5orf56 (11738089_at) / RFU CYB561 (11721691_x_at) / Fold change /veh CYB561 (11721691_x_at) / RFU ANKRD19P (11752326_a_at) / Fold change /veh ANKRD19P (11752326_a_at) / RFU OR2T12 /// OR2T33 /// OR2T8 (11738714_s_at) / Fold change /veh OR2T12 /// OR2T33 /// OR2T8 (11738714_s_at) / RFU VCAN (11748164_a_at) / Fold change /veh VCAN (11748164_a_at) / RFU JSRP1 (11732532_at) / Fold change /veh JSRP1 (11732532_at) / RFU KRTAP10-11 (11738290_x_at) / Fold change /veh KRTAP10-11 (11738290_x_at) / RFU MYO3A (11730013_a_at) / Fold change /veh MYO3A (11730013_a_at) / RFU EBF3 (11725865_a_at) / Fold change /veh EBF3 (11725865_a_at) / RFU CAMK2N1 (11719241_x_at) / Fold change /veh CAMK2N1 (11719241_x_at) / RFU C5orf56 (11738088_a_at) / Fold change /veh C5orf56 (11738088_a_at) / RFU OLFML3 (11715873_a_at) / Fold change /veh OLFML3 (11715873_a_at) / RFU LOC100653217 /// NTM (11731650_a_at) / Fold change /veh LOC100653217 /// NTM (11731650_a_at) / RFU MAPK11 (11762145_a_at) / Fold change /veh MAPK11 (11762145_a_at) / RFU FIZ1 (11724087_x_at) / Fold change /veh FIZ1 (11724087_x_at) / RFU OASL (11726364_x_at) / Fold change /veh OASL (11726364_x_at) / RFU SOX15 (11748057_x_at) / Fold change /veh SOX15 (11748057_x_at) / RFU CD79A (11719716_a_at) / Fold change /veh CD79A (11719716_a_at) / RFU HIST1H1D (11736915_at) / Fold change /veh HIST1H1D (11736915_at) / RFU CASKIN2 (11723855_a_at) / Fold change /veh CASKIN2 (11723855_a_at) / RFU LOC730098 (11760151_x_at) / Fold change /veh LOC730098 (11760151_x_at) / RFU OR4N2 (11742367_at) / Fold change /veh OR4N2 (11742367_at) / RFU PRRT2 (11749266_a_at) / Fold change /veh PRRT2 (11749266_a_at) / RFU SNX32 (11753110_a_at) / Fold change /veh SNX32 (11753110_a_at) / RFU CDHR5 (11726645_a_at) / Fold change /veh CDHR5 (11726645_a_at) / RFU RCAN1 (11760418_a_at) / Fold change /veh RCAN1 (11760418_a_at) / RFU FAM167A (11723789_a_at) / Fold change /veh FAM167A (11723789_a_at) / RFU FAM26E (11764081_at) / Fold change /veh FAM26E (11764081_at) / RFU ISYNA1 (11749810_s_at) / Fold change /veh ISYNA1 (11749810_s_at) / RFU ACY1 (11761880_at) / Fold change /veh ACY1 (11761880_at) / RFU 11764098_at / Fold change /veh 11764098_at / RFU SAMD14 (11745864_x_at) / Fold change /veh SAMD14 (11745864_x_at) / RFU NPB (11741838_a_at) / Fold change /veh NPB (11741838_a_at) / RFU TMPRSS6 (11731388_a_at) / Fold change /veh TMPRSS6 (11731388_a_at) / RFU KRTAP10-2 (11738614_at) / Fold change /veh KRTAP10-2 (11738614_at) / RFU ARHGAP8 /// PRR5-ARHGAP8 (11727945_x_at) / Fold change /veh ARHGAP8 /// PRR5-ARHGAP8 (11727945_x_at) / RFU KRTAP5-7 /// NADSYN1 (11734609_at) / Fold change /veh KRTAP5-7 /// NADSYN1 (11734609_at) / RFU RASL12 (11751679_a_at) / Fold change /veh RASL12 (11751679_a_at) / RFU CDKN2B (11736163_a_at) / Fold change /veh CDKN2B (11736163_a_at) / RFU PRF1 (11729649_at) / Fold change /veh PRF1 (11729649_at) / RFU, ZNF638 /// ZNF638-IT1 / Fold change vs veh, ZNF638 /// ZNF638-IT1 / RFU, PANK3 / Fold change vs veh, PANK3 / RFU, SH3YL1 / Fold change vs veh, SH3YL1 / RFU, ZEB2 / Fold change vs veh, ZEB2 / RFU, NRIP1 / Fold change vs veh, NRIP1 / RFU, PTTG1IP / Fold change vs veh, PTTG1IP / RFU, CAPN2 / Fold change vs veh, CAPN2 / RFU, MED14 / Fold change vs veh, MED14 / RFU, SNORA58 / Fold change vs veh, SNORA58 / RFU, C1orf63 / Fold change vs veh, C1orf63 / RFU, LRRFIP1 / Fold change vs veh, LRRFIP1 / RFU, NDUFAF7 / Fold change vs veh, NDUFAF7 / RFU, SLC12A2 / Fold change vs veh, SLC12A2 / RFU, IBTK / Fold change vs veh, IBTK / RFU, ESF1 / Fold change vs veh, ESF1 / Fold change vs veh, TMEM50B / RFU, TAOK1 / Fold change vs veh, TAOK1 / RFU, ACBD3 / Fold change vs veh, ACBD3 / RFU, TMA16 / Fold change vs veh, TMA16 / RFU, RWDD3 / Fold change vs veh, RWDD3 / RFU, BCAT1 / Fold change vs veh, BCAT1 / RFU, EDEM3 / Fold change vs veh, EDEM3 / RFU, TMEM33 / Fold change vs veh, TMEM33 / RFU, WDR75 / Fold change vs veh, WDR75 / RFU, AHCTF1 / Fold change vs veh, AHCTF1 / RFU, TFRC / Fold change vs veh, TFRC / RFU, ZDHHC17 / Fold change vs veh, ZDHHC17 / RFU, NOM1 / Fold change vs veh, NOM1 / RFU, ARL8B / Fold change vs veh, ARL8B / RFU, ZBTB11 / Fold change vs veh, ZBTB11 / RFU, TAMM41 / Fold change vs veh, TAMM41 / RFU, KIAA1704 /// LOC100996395 / Fold change vs veh, KIAA1704 /// LOC100996395 / RFU, ING1 / Fold change vs veh, ING1 / RFU, TRMT61B / Fold change vs veh, TRMT61B / RFU, FUBP3 / Fold change vs veh, FUBP3 / RFU, TP53 / Fold change vs veh, TP53 / RFU, TNKS2 / Fold change vs veh, TNKS2 / RFU, ZFP14 / Fold change vs veh, ZFP14 / RFU, ACTR2 / Fold change vs veh, ACTR2 / RFU, PPP3R1 / Fold change vs veh, PPP3R1 / RFU, PIK3R1 / Fold change vs veh, PIK3R1 / RFU, HNRNPA1 / Fold change vs veh, HNRNPA1 / RFU, RNF170 / Fold change vs veh, RNF170 / RFU, ZNF28 / Fold change vs veh, ZNF28 / RFU, RNGTT / Fold change vs veh, RNGTT / RFU, OGT / Fold change vs veh, OGT / RFU, BRD1 / Fold change vs veh, BRD1 / RFU, MARS / Fold change vs veh, MARS / RFU, ZNF655 / Fold change vs veh, ZNF655 / RFU, FAHD1 / Fold change vs veh, FAHD1 / RFU, BDP1 / Fold change vs veh, BDP1 / RFU, LRRCC1 / Fold change vs veh, LRRCC1 / RFU, ARID1A / Fold change vs veh, ARID1A / RFU, ZNF146 / Fold change vs veh, ZNF146 / RFU, ZNF330 / Fold change vs veh, ZNF330 / RFU, GPN3 / Fold change vs veh, GPN3 / RFU, C9orf123 / Fold change vs veh, C9orf123 / RFU, N4BP2L2 / Fold change vs veh, N4BP2L2 / RFU, ARFIP1 / Fold change vs veh, ARFIP1 / RFU, FAM179B / Fold change vs veh, FAM179B / RFU, BCL10 / Fold change vs veh, BCL10 / RFU, UHRF1BP1L / Fold change vs veh, UHRF1BP1L / RFU, BET1 / Fold change vs veh, BET1 / RFU, CNOT2 / Fold change vs veh, CNOT2 / RFU, ZNF268 / Fold change vs veh, ZNF268 / Fold change vs veh, ZNF507 / RFU, DGCR2 / Fold change vs veh, DGCR2 / RFU, WDSUB1 / Fold change vs veh, WDSUB1 / Fold change vs veh, HSP90B1 /// MIR3652 / RFU, ADSS / Fold change vs veh, ADSS / RFU, GK / Fold change vs veh, GK / RFU, ZNF148 / Fold change vs veh, ZNF148 / RFU, TAF9 / Fold change vs veh, TAF9 / RFU, SLC1A5 / Fold change vs veh, SLC1A5 / RFU, SLMO2 / Fold change vs veh, SLMO2 / RFU, ABCC4 / Fold change vs veh, ABCC4 / RFU, LOC101060439 /// RAP1B / Fold change vs veh, LOC101060439 /// RAP1B / RFU, RFX7 / Fold change vs veh, RFX7 / RFU, GTPBP10 / Fold change vs veh, GTPBP10 / RFU, CNEP1R1 / Fold change vs veh, CNEP1R1 / RFU, BIVM-ERCC5 /// ERCC5 / Fold change vs veh, BIVM-ERCC5 /// ERCC5 / RFU, ILF3 / Fold change vs veh, ILF3 / RFU 11762660_at / Fold change /veh 11762660_at / RFU VCAN (11757783_s_at) / Fold change /veh VCAN (11757783_s_at) / RFU DDX43 (11728927_at) / Fold change /veh DDX43 (11728927_at) / RFU KRT8 (11758188_x_at) / Fold change /veh KRT8 (11758188_x_at) / RFU NKD1 (11759106_at) / Fold change /veh NKD1 (11759106_at) / RFU SRD5A1 (11742802_a_at) / Fold change /veh SRD5A1 (11742802_a_at) / RFU TPSAB1 /// TPSB2 (11721975_s_at) / Fold change /veh TPSAB1 /// TPSB2 (11721975_s_at) / RFU GSTM3 (11746129_a_at) / Fold change /veh GSTM3 (11746129_a_at) / RFU IL23R (11737362_x_at) / Fold change /veh IL23R (11737362_x_at) / RFU TMEM51 (11727254_a_at) / Fold change /veh TMEM51 (11727254_a_at) / RFU PIWIL2 (11732686_x_at) / Fold change /veh PIWIL2 (11732686_x_at) / RFU ORM1 (11744905_x_at) / Fold change /veh ORM1 (11744905_x_at) / RFU CCDC152 (11743942_at) / Fold change /veh CCDC152 (11743942_at) / RFU ECM1 (11717891_a_at) / Fold change /veh ECM1 (11717891_a_at) / RFU IL23R (11748794_a_at) / Fold change /veh IL23R (11748794_a_at) / RFU TNFAIP8L3 (11732012_x_at) / Fold change /veh TNFAIP8L3 (11732012_x_at) / RFU MBOAT4 (11741988_at) / Fold change /veh MBOAT4 (11741988_at) / RFU 11764193_at / Fold change /veh 11764193_at / RFU TMEM53 (11763286_at) / Fold change /veh TMEM53 (11763286_at) / RFU MAGEB2 (11727129_at) / Fold change /veh MAGEB2 (11727129_at) / RFU TMEM200A (11744735_a_at) / Fold change /veh TMEM200A (11744735_a_at) / RFU CCDC152 (11751479_a_at) / Fold change /veh CCDC152 (11751479_a_at) / RFU FAM211A (11726209_a_at) / Fold change /veh FAM211A (11726209_a_at) / RFU RGS16 (11746705_a_at) / Fold change /veh RGS16 (11746705_a_at) / RFU VCAN (11755009_s_at) / Fold change /veh VCAN (11755009_s_at) / RFU RHOB (11743442_s_at) / Fold change /veh RHOB (11743442_s_at) / RFU RGS16 (11720943_a_at) / Fold change /veh RGS16 (11720943_a_at) / RFU RGS16 (11720944_at) / Fold change /veh RGS16 (11720944_at) / RFU, VPS4B / Fold change vs veh, VPS4B / RFU, CREB1 / Fold change vs veh, CREB1 / RFU, DNAJC13 / Fold change vs veh, DNAJC13 / RFU, GNAQ / Fold change vs veh, GNAQ / RFU, CDK5R1 / Fold change vs veh, CDK5R1 / RFU, ZRANB3 / Fold change vs veh, ZRANB3 / RFU, CUL4A / Fold change vs veh, CUL4A / RFU, CCNY / Fold change vs veh, CCNY / RFU, UFL1 / Fold change vs veh, UFL1 / RFU, COG3 / Fold change vs veh, COG3 / RFU, DIAPH2 / Fold change vs veh, DIAPH2 / RFU, SKA2 / Fold change vs veh, SKA2 / RFU, AFF3 / Fold change vs veh, AFF3 / RFU, LMF1 / Fold change vs veh, LMF1 / RFU, IPO11 / Fold change vs veh, IPO11 / RFU, DFFB / Fold change vs veh, DFFB / RFU, FOXP1 / Fold change vs veh, FOXP1 / RFU, CARD8 / Fold change vs veh, CARD8 / RFU, STRN3 / Fold change vs veh, STRN3 / RFU, ADK / Fold change vs veh, ADK / RFU, RASSF2 / Fold change vs veh, RASSF2 / RFU, WIPF1 / Fold change vs veh, WIPF1 / RFU, LARP1B / Fold change vs veh, LARP1B / RFU, RASA1 / Fold change vs veh, RASA1 / RFU, RB1 / Fold change vs veh, RB1 / RFU, PPFIA1 / Fold change vs veh, PPFIA1 / RFU, MAT2A / Fold change vs veh, MAT2A / RFU, CCT5 / Fold change vs veh, CCT5 / RFU, WDR92 / Fold change vs veh, WDR92 / RFU, CUX1 / Fold change vs veh, CUX1 / RFU, TTC7A / Fold change vs veh, TTC7A / RFU, TMEM135 / Fold change vs veh, TMEM135 / RFU, DEPTOR / Fold change vs veh, DEPTOR / RFU, CPM / Fold change vs veh, CPM / RFU, DNAJB6 / Fold change vs veh, DNAJB6 / RFU, CACNA2D3 / Fold change vs veh, CACNA2D3 / RFU, DTX4 / Fold change vs veh, DTX4 / RFU, TFCP2 / Fold change vs veh, TFCP2 / RFU, GMCL1 /// GMCL1P1 / Fold change vs veh, GMCL1 /// GMCL1P1 / RFU, AEBP2 / Fold change vs veh, AEBP2 / RFU, SNHG1 /// SNORD22 /// SNORD25 /// SNORD26 /// SNORD27 /// SNORD28 /// SNORD29 /// SNORD31 / Fold change vs veh, SNHG1 /// SNORD22 /// SNORD25 /// SNORD26 /// SNORD27 /// SNORD28 /// SNORD29 /// SNORD31 / Fold change (Aza/veh), C12orf56 (ProbeSet 11735607_a_at) / Fold change (ACY-1035/veh), C12orf56 (ProbeSet 11735607_a_at) / Fold change (Aza/veh), FGFR1OP (ProbeSet 11751329_s_at) / Fold change (ACY-1035/veh), FGFR1OP (ProbeSet 11751329_s_at) / Fold change (Aza/veh), VPS36 (ProbeSet 11739960_a_at) / Fold change (ACY-1035/veh), VPS36 (ProbeSet 11739960_a_at) / RFU SYPL1 (11715823_x_at) / Fold change /veh SYPL1 (11715823_x_at) / RFU IGFBP7 (11715501_s_at) / Fold change /veh IGFBP7 (11715501_s_at) / RFU REEP3 (11722064_at) / Fold change /veh REEP3 (11722064_at) / RFU IGLL1 (11728026_x_at) / Fold change /veh IGLL1 (11728026_x_at): dose or concentration left out as unconfirmed
# Conditions: MV-4-11 cells, 48 hours
smiles,measurement,value
Nc1ccc(-c2cccs2)cc1NC(=O)c1ccc2c(c1)cc(C1CC1)n2CCN1CCOCC1 [ACY-1035],RFU KRTAP10-2 (11738614_at),11.58 RFU
